Patent publication US20180319753A1, “MICROBIOCIDAL OXADIAZOLE DERIVATIVES” (SYNGENTA PARTICIPATIONS AG, priority 2015, published 2018)

Columns and labels:
[1] = test system: Glomerella lagenarium (Colletotrichum lagenarium); test: Glomerella lagenarium (Colletotrichum lagenarium) liquid culture / cucumber / preventative (anthracnose); assay type: cell-based; conditions: Colletotrichum orbiculare; 20 ppm in the applied formulation; liquid culture in PDB, 24° C.; 3 to 4 days after application; read-out: disease control compared to untreated control (inhibition of growth measured photometrically)
Protocol: Mycelia fragments or conidia suspensions of a fungus prepared either freshly from liquid cultures of the fungus or from cryogenic storage, are directly mixed into nutrient broth. DMSO solutions of the test compound (max. 10 mg/ml) are diluted with 0.025% Tween20 by a factor of 50 and 10 μl of this solution is pipetted into a microtiter plate (96-well format). The nutrient broth containing the fungal spores/mycelia fragments is then added to give an end concentration of the tested compound. The test plates are incubated in the dark at 24° C. and 96% relative humidity. The inhibition of fungal growth is determined photometrically after 2 to 7 days, depending on the pathosystem, and percent antifungal activity relative to the untreated check is calculated.
Conidia of the fungus from cryogenic storage are directly mixed into nutrient broth (PDB—potato dextrose broth). After placing a (DMSO) solution of test compound into a microtiter plate (96-well format), the nutrient broth containing the fungal spores is added. The test plates are incubated at 24° C. and the inhibition of growth is measured photometrically 3 to 4 days after application.
The following compounds at 20 ppm in the applied formulation give at least 80% disease control in this test when compared to untreated control under the same conditions, which show extensive disease development.

Phakopsora pachyrhizi = Phakopsora pachyrhizi / soybean / leaf disc preventative (Asian soybean rust); assay type: in vivo; conditions: foliar, 200 ppm in the applied formulation, soybean leaf disks, inoculated one day after application, assessed 12 to 14 days after application, read-out: disease control compared to untreated control leaf disks
Protocol: (§1) Leaf disks or leaf segments of various plant species are cut from plants grown in a greenhouse. The cut leaf disks or segments are placed in multiwell plates (24-well format) onto water agar. The leaf disks are sprayed with a test solution before (preventative) or after (curative) inoculation. Compounds to be tested are prepared as DMSO solutions (max. 10 mg/ml) which are diluted to the appropriate concentration with 0.025% Tween20 just before spraying. The inoculated leaf disks or segments are incubated under defined conditions (temperature, relative humidity, light, etc.) according to the respective test system. A single evaluation of disease level is carried out 3 to 14 days after inoculation, depending on the pathosystem. Percent disease control relative to the untreated check leaf disks or segments is then calculated.
Soybean leaf disks are placed on water agar in multiwell plates (24-well format) and sprayed with the formulated test compound diluted in water. One day after application leaf discs are inoculated by spraying a spore suspension on the lower leaf surface. After an incubation period in a climate cabinet of 24-36 hours in darkness at 20° C. and 75% rh leaf disc are kept at 20° C. with 12 h light/day and 75% rh. The activity of a compound is assessed as percent disease control compared to untreated when an appropriate level of disease damage appears in untreated check leaf disks (12 to 14 days after application).
The following compounds at 200 ppm in the applied formulation give at least 80% disease control in this test when compared to untreated control leaf disks under the same conditions, which show extensive disease development.

[2] = test system: Puccinia recondita f. Sp. Tritici; test: Puccinia recondita f. sp. tritici / wheat / leaf disc preventative (brown rust); assay type: in vivo; conditions: foliar, 200 ppm in the applied formulation, wheat leaf segments cv. Kanzler, inoculated 1 day after application, assessed 7 to 9 days after application, read-out: disease control compared to untreated control leaf disks
Protocol: as §1, with “calculated. Wheat leaf segments cv. Kanzler were placed on agar in multiwell plates (24-well format) and sprayed with the formulated test compound diluted in water. The leaf disks were inoculated with a spore suspension of the fungus 1 day after application. The inoculated leaf segments were incubated at 19° C. and 75% relative humidity (rh) under a light regime of 12 hours light/12 hours darkness in a climate cabinet and the activity of a compound was assessed as percent disease control compared to untreated when an appropriate level of disease damage appears in untreated check leaf segments (7 to 9 days after application). The following compounds at 200 ppm in the applied formulation give at least 80% disease control in this test when compared to untreated control leaf disks under the same conditions, which show extensive disease development.” for “calculated.”

Row | SMILES | inhibition at 20 ppm [1] | pest or weed control at 200 ppm (Phakopsora pachyrhizi) | melting point | pest or weed control at 200 ppm [2]
1 | Fc1ccc(Sc2ccc(-c3noc(C(F)(F)F)n3)cc2)c(F)c1 [Compound 1.10, 3-[4-(2,4-difluorophenyl)sulfanylphenyl]-5-(trifluoromethyl)-1,2,4-oxadiazole] | ≥ 80% | ≥ 80% | 72 to 80 °C | –
2 | Fc1cc(-c2noc(C(F)(F)F)n2)ccc1CSc1ccccc1 [Compound 1.24, 3-[3-fluoro-4-(phenylsulfanylmethyl)phenyl]-5-(trifluoromethyl)-1,2,4-oxadiazole] | ≥ 80% | ≥ 80% | 50 to 55 °C | –
3 | Fc1cc(CSc2ccccc2)ccc1-c1noc(C(F)(F)F)n1 [Compound 1.25, 3-[2-fluoro-4-(phenylsulfanylmethyl)phenyl]-5-(trifluoromethyl)-1,2,4-oxadiazole] | ≥ 80% | ≥ 80% | 48 to 54 °C | –
4 | Cc1ccc(C)c([S+]([O-])c2ccc(-c3noc(C(F)(F)F)n3)cc2)c1 (centres unmarked) [Compound 2.7, 3-[4-(2,5-dimethylphenyl)sulfinyl-phenyl]-5-(trifluoromethyl)-1,2,4-oxadiazole] | ≥ 80% | ≥ 80% | 103 to 109 °C | ≥ 80%
5 | [O-][S+](Cc1c(F)cccc1F)c1ccc(-c2noc(C(F)(F)F)n2)cc1 (centres unmarked) [Compound 2.9, 3-[4-[(2,6-difluorophenyl)methyl-sulfinyl]phenyl]-5-(trifluoromethyl)-1,2,4-oxadiazole] | ≥ 80% | ≥ 80% | 126 to 130 °C | –
6 | Cc1cc(-c2noc(C(F)(F)F)n2)ccc1[S+]([O-])c1ccccc1 (centres unmarked) [Compound 2.11, 3-[4-(benzenesulfinyl)-3-methyl-phenyl]-5-(trifluoromethyl)-1,2,4-oxadiazole] | ≥ 80% | ≥ 80% | – | ≥ 80%
7 | [O-][S+](c1ccc(-c2noc(C(F)(F)F)n2)cc1)c1ccc(C(F)(F)F)cc1 (centres unmarked) [Compound 2.14, 5-(trifluoromethyl)-3-[4-[4-(trifluoromethyl)phenyl]sulfinylphenyl]-1,2,4-oxadiazole] | ≥ 80% | – | 94 to 100 °C | ≥ 80%
8 | [O-][S+](c1ccc(-c2noc(C(F)(F)F)n2)cc1)c1c(F)cccc1F (centres unmarked) [Compound 2.16, 3-[4-(2,6-difluorophenyl)sulfinyl-phenyl]-5-(trifluoromethyl)-1,2,4-oxadiazole] | – | ≥ 80% | 148 to 155 °C | ≥ 80%
9 | [O-][S+](Cc1ccc(-c2noc(C(F)(F)F)n2)cc1)c1ccccc1F (centres unmarked) [Compound 2.17, 3-[4-[(2-fluorophenyl)sulfinylmethyl]phenyl]-5-(trifluoromethyl)-1,2,4-oxadiazole] | ≥ 80% | ≥ 80% | 108 to 118 °C | –
10 | [O-][S+](c1ccc(-c2noc(C(F)(F)F)n2)cc1)c1ccccc1F (centres unmarked) [Compound 2.18, 3-[4-(2-fluorophenyl)sulfinylphenyl]-5-(trifluoromethyl)-1,2,4-oxadiazole] | ≥ 80% | ≥ 80% | 116 to 121 °C | ≥ 80%
11 | [O-][S+](c1ccc(-c2noc(C(F)(F)F)n2)cc1)c1cccc(F)c1 (centres unmarked) [Compound 2.20, 3-[4-(3-fluorophenyl)sulfinylphenyl]-5-(trifluoromethyl)-1,2,4-oxadiazole] | ≥ 80% | ≥ 80% | 103 to 111 °C | ≥ 80%
12 | Cc1ccccc1[S+]([O-])c1ccc(-c2noc(C(F)(F)F)n2)cn1 (centres unmarked) [Compound 2.25, 3-[6-(o-tolylsulfinyl)-3-pyridyl]-5-(trifluoromethyl)-1,2,4-oxadiazole] | ≥ 80% | ≥ 80% | 103 to 105 °C | ≥ 80%
13 | [O-][S+](Cc1ccc(-c2noc(C(F)(F)F)n2)cc1F)c1ccccc1 (centres unmarked) [Compound 2.29, 3-[4-(benzenesulfinylmethyl)-3-fluoro-phenyl]-5-(trifluoromethyl)-1,2,4-oxadiazole] | ≥ 80% | ≥ 80% | 116 to 120 °C | –
14 | O=S(=O)(c1ccc(-c2noc(C(F)(F)F)n2)cc1)C1CCCCC1 [Compound 3.3, 3-(4-cyclohexylsulfonylphenyl)-5-(trifluoromethyl)-1,2,4-oxadiazole] | ≥ 80% | ≥ 80% | 110 to 116 °C | –
15 | O=S(=O)(c1ccc(F)cc1)c1ccc(-c2noc(C(F)(F)F)n2)cc1 [Compound 3.9, 3-[4-(4-fluorophenyl)sulfonylphenyl]-5-(trifluoromethyl)-1,2,4-oxadiazole] | – | ≥ 80% | 144 to 149 °C | ≥ 80%
16 | COc1ccccc1S(=O)(=O)c1ccc(-c2noc(C(F)(F)F)n2)cc1 [Compound 3.10, 3-[4-(2-methoxyphenyl)sulfonyl-phenyl]-5-(trifluoromethyl)-1,2,4-oxadiazole] | – | – | 119 to 123 °C | ≥ 80%
17 | O=S(=O)(c1ccc(-c2noc(C(F)(F)F)n2)cc1)c1ccccc1F [Compound 3.12, 3-[4-(2-fluorophenyl)sulfonylphenyl]-5-(trifluoromethyl)-1,2,4-oxadiazole] | ≥ 80% | ≥ 80% | 140 to 147 °C | –
18 | Cc1ccccc1S(=O)(=O)c1ccc(-c2noc(C(F)(F)F)n2)cc1 [Compound 3.17, 3-[4-(o-tolylsulfonyl)phenyl]-5-(trifluoromethyl)-1,2,4-oxadiazole] | ≥ 80% | – | 109 to 115 °C | ≥ 80%
19 | Cc1ccccc1S(=O)(=O)c1ccc(-c2noc(C(F)(F)F)n2)cn1 [Compound 3.18, 3-[6-(o-tolylsulfonyl)-3-pyridyl]-5-(trifluoromethyl)-1,2,4-oxadiazole] | ≥ 80% | – | 66 to 68 °C | ≥ 80%
20 | O=S(=O)(c1ccc(-c2noc(C(F)(F)F)n2)cn1)c1ccccc1F [Compound 3.19, 3-[6-(2-fluorophenyl)sulfonyl-3-pyridyl]-5-(trifluoromethyl)-1,2,4-oxadiazole] | ≥ 80% | – | 145 to 151 °C | ≥ 80%
21 | O=S(=O)(c1ccc(-c2noc(C(F)(F)F)n2)cc1)c1ccccc1Cl [Compound 3.20, 3-[4-(2-chlorophenyl)sulfonylphenyl]-5-(trifluoromethyl)-1,2,4-oxadiazole] | ≥ 80% | ≥ 80% | – | –
22 | O=S(=O)(Cc1ccc(-c2noc(C(F)(F)F)n2)cn1)c1ccccc1 [Compound 3.21, 3-[6-(benzenesulfonylmethyl)-3-pyridyl]-5-(trifluoromethyl)-1,2,4-oxadiazole] | ≥ 80% | ≥ 80% | 160 to 166 °C | –
